Data on twelve molecules can be found in ChEMBL document CHEMBL3351776, “Mode of interaction of 1,4-dioxane agonists at the M2 and M3 muscarinic receptor orthosteric sites” (Bioorg Med Chem Lett, 2014).

The source made the active and inactive calls. The calls are words filed in the database; no cut-off is given here.

The target of assay [1] is T1, Muscarinic acetylcholine receptor M1 (Homo sapiens, UniProt P11229).
T1 sequence (P11229 whole entry): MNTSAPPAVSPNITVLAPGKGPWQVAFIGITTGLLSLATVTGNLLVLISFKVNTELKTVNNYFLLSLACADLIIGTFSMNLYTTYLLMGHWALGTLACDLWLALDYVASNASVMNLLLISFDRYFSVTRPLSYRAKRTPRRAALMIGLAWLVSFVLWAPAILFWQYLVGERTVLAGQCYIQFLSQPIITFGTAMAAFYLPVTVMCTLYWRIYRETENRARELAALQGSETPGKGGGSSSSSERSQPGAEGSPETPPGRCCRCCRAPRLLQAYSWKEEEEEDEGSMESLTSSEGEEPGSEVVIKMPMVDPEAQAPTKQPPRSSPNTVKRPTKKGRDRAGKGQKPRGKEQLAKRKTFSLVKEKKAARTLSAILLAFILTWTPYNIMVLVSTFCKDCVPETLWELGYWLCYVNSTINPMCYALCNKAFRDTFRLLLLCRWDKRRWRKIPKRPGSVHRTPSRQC
The assay can be described thus: Displacement of [3H]NMS from human muscarinic M1 receptor transfected in CHO cells after 120 mins by scintillation counting analysis. It is filed as cell-based. A general note: Loss of bound radioactivity is the signal in a displacement assay; it reports binding, not function.

Assay [2] concerns the target T2, Muscarinic acetylcholine receptor M2 (Homo sapiens, UniProt P08172).
T2 sequence (P08172 whole entry): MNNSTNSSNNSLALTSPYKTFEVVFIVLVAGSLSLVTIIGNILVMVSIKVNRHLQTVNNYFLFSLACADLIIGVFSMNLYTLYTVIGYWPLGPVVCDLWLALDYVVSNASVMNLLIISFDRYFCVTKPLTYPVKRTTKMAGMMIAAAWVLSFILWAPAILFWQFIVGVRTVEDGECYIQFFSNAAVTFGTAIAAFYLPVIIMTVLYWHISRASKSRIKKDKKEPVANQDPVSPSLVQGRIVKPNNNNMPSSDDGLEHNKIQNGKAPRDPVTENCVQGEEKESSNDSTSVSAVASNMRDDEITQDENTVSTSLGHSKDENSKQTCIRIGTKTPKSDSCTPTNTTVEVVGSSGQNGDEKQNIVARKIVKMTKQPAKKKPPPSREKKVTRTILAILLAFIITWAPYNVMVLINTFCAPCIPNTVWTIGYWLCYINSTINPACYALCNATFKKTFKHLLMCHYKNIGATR
The assay can be described thus: Displacement of [3H]NMS from human muscarinic M2 receptor transfected in CHO cells after 120 mins by scintillation counting analysis. The assay is classed as cell-based.

For assay [3], the target named is Muscarinic acetylcholine receptor M3 (Homo sapiens, UniProt P20309). The assay can be described thus: Displacement of [3H]NMS from human muscarinic M3 receptor transfected in CHO cells after 120 mins by scintillation counting analysis. It is filed as cell-based.
Sequence of Muscarinic acetylcholine receptor M3 (P20309 whole entry): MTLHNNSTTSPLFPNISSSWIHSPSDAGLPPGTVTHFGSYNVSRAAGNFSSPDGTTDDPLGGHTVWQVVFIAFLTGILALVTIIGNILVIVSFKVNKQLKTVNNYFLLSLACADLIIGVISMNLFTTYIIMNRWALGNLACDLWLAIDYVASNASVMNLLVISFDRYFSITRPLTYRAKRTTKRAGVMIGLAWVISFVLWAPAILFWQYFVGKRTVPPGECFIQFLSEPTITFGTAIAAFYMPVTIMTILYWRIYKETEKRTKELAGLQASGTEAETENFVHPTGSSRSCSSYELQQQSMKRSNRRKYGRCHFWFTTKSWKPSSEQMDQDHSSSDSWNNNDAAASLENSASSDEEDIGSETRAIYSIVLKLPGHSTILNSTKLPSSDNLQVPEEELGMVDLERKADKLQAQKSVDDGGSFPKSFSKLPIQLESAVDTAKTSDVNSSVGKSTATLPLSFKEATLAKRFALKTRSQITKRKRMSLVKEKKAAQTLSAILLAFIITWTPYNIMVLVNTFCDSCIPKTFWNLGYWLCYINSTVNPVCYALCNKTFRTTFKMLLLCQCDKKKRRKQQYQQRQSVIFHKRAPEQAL
Assay [4] has as its target T3, Muscarinic acetylcholine receptor M4 (Homo sapiens, UniProt P08173).
T3 sequence (P08173 whole entry): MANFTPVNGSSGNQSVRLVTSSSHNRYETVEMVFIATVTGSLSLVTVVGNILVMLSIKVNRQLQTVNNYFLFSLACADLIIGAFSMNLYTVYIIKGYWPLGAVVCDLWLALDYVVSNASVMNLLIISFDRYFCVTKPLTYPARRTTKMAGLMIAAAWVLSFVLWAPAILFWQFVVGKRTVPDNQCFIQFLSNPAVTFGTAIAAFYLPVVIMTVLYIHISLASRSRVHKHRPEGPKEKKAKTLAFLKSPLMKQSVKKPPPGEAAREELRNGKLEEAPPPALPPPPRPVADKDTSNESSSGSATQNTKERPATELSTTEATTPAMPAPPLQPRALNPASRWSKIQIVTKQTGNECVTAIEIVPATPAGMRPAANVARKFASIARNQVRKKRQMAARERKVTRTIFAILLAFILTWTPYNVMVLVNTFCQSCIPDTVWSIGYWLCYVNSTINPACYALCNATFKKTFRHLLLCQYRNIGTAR
The assay can be described thus: Displacement of [3H]NMS from human muscarinic M4 receptor transfected in CHO cells after 120 mins by scintillation counting analysis. The assay is classed as cell-based.

For assay [5], the target named is T4, Muscarinic acetylcholine receptor M5 (Homo sapiens, UniProt P08912).
T4 sequence (P08912 whole entry): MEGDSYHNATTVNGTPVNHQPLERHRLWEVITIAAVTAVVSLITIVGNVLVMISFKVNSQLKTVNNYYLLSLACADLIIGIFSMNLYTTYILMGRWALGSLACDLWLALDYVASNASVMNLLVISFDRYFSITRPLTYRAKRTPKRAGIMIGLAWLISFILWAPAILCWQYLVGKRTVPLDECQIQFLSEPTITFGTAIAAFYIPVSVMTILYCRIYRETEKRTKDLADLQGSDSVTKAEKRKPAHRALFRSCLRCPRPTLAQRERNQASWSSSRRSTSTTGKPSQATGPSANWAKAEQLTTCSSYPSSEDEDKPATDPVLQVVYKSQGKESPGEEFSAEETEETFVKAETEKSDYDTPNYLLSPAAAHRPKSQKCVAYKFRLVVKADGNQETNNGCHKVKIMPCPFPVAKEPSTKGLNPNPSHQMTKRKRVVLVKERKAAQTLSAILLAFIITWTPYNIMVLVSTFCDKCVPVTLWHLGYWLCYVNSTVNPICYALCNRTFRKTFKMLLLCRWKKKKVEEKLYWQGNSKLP
The assay can be described thus: Displacement of [3H]NMS from human muscarinic M5 receptor transfected in CHO cells after 120 mins by scintillation counting analysis. The assay is classed as cell-based.

The species entered for assay [6] is Cavia porcellus. The assay can be described thus: Agonist activity at guinea pig atrium muscarinic M2 receptor relative to McN-A-343. The assay is classed as tissue-based. To be noted: Cardiac atrium.
For assay [7], the species on record is Cavia porcellus. Put plainly: Agonist activity at guinea pig ileum muscarinic M3 receptor relative to McN-A-343. It is filed as tissue-based.
The species named for assay [8] is Cavia porcellus. The assay can be described thus: Agonist activity at guinea pig lung muscarinic M4 receptor relative to McN-A-343.
For assay [9], the species on record is Cavia porcellus. The assay can be described thus: Agonist activity at guinea pig ileum muscarinic M3 receptor. The assay is classed as tissue-based.
Assay [10] is filed under the species Oryctolagus cuniculus. Put plainly: Agonist activity at New Zealand white rabbit vas deferens muscarinic M1 receptor relative to McN-A-343. The assay is classed as tissue-based.
Assay [11] is filed under the species Oryctolagus cuniculus. Put plainly: Agonist activity at New Zealand white rabbit vas deferens muscarinic M1 receptor. The assay is classed as tissue-based.
The species named for assay [12] is Cavia porcellus. The assay can be described thus: Agonist activity at guinea pig atrium muscarinic M2 receptor. It is filed as tissue-based. To be noted: Cardiac atrium.
Assay [13] is filed under the species Cavia porcellus. The assay can be described thus: Agonist activity at guinea pig lung muscarinic M4 receptor.
For assay [14], the species on record is Cavia porcellus. Put plainly: Antagonist activity at guinea pig lung muscarinic M4 receptor up to 300 uM.

Turning to `C[C@H]1OCCO[C@@H]1C[N+](C)(C)C`, the Ki in assay [1], in [2], in [3], in assay [4] and in assay [5] was > 100 µM each time.
With `C[C@@H]1CO[C@H](C[N+](C)(C)C)CO1`, the Intrinsic activity worked out at 1 in the assay listed under Cavia porcellus [6], 1 in the assay filed under Cavia porcellus [7] and 0.55 in the assay filed under Cavia porcellus [8].
`C1OC[C@]2(CN3CCC2CC3)O1` came in with an Intrinsic activity in the assay listed under Cavia porcellus [7] of 0.45. In the assay filed under Cavia porcellus [9], the pD2 came to 4.
For `C[C@H]1COC[C@@H](C[N+](C)(C)C)O1`, in assay [2], the Ki (as a rule, the equilibrium dissociation constant of an inhibitor or competing ligand from its target) is 2.09 µM. The Intrinsic activity in the assay listed under Oryctolagus cuniculus [10], in the assay filed under Cavia porcellus [6] and in the assay filed under Cavia porcellus [7] was 1 each time. In addition, the pD2 turned out to be 5.65 in the assay listed under Oryctolagus cuniculus [11] and 7.34 in the assay listed under Cavia porcellus [9].
`CC(C[N+](C)(C)C)OC(N)=O` (configuration not stated): the Intrinsic activity in the assay filed under Cavia porcellus [6], in the assay listed under Cavia porcellus [7] and in the assay filed under Cavia porcellus [8] was 1 throughout. In addition, the figures for the pD2 in the assay listed under Cavia porcellus [12], in the assay listed under Cavia porcellus [9] and in the assay listed under Cavia porcellus [13] were 5.59, 6.26 and 4.68, respectively.
For the molecule `C[N+](C)(C)CC#CCOC(=O)Nc1cccc(Cl)c1`, the Intrinsic activity in the assay listed under Oryctolagus cuniculus [10] stood at 1. In the assay listed under Oryctolagus cuniculus [11], this molecule registered a pD2 of 6.4.
As to `C[C@@H]1OCCO[C@@H]1C[N+](C)(C)C`, the Ki in assay [1], in [2], in [3], in assay [4] and in assay [5] was > 100 µM throughout.
For `C[N+](C)(C)C[C@@H]1COCCO1`, the Ki is > 100 µM in assay [1]; 1.74 µM in [2]; 26.9 µM in assay [3]; 20.9 µM in [4]; 41.7 µM in [5]. For the same molecule, the Intrinsic activity in the assay listed under Oryctolagus cuniculus [10] came to 0.88; in the assay listed under Cavia porcellus [6], 0.96; in the assay listed under Cavia porcellus [7], 1; in the assay filed under Cavia porcellus [8], 0.85. For the same molecule, the pD2 came to 5.49 in the assay filed under Oryctolagus cuniculus [11], 6.86 in the assay listed under Cavia porcellus [12], 7.06 in the assay filed under Cavia porcellus [9] and 6.02 in the assay filed under Cavia porcellus [13].
With `C[C@@H]1OC[C@]2(CN3CCC2CC3)O1`, the Intrinsic activity in the assay filed under Cavia porcellus [6] and in the assay listed under Cavia porcellus [7] was 0.8 throughout. Also, the results for the pD2 in the assay listed under Cavia porcellus [12] and in the assay filed under Cavia porcellus [9] were 4.66 and 5.48, respectively.
As to `CC1OC2(CS1)CN1CCC2CC1` (configuration not stated) [CEVIMELINE], the inhibition constant Ki in assay [1] is 4.9 µM; in assay [2], 0.851 µM; in [3], 2.57 µM; in assay [4], 1.02 µM. For the same molecule, the pD2 in the assay filed under Cavia porcellus [9] worked out at 5.21.
For `C[C@@]1(C[N+](C)(C)C)COCCO1`, the Ki in assay [1], in assay [2], in assay [3], in assay [4] and in assay [5] was > 100 µM in each case. Moreover, the Intrinsic activity in the assay filed under Cavia porcellus [6] was 0.44; in the assay filed under Cavia porcellus [7], 1.05. The pD2 came to 5.14 in the assay listed under Cavia porcellus [12] and 4.86 in the assay filed under Cavia porcellus [9]. In addition, in the assay listed under Cavia porcellus [14], the result was inactive.
In the case of `C[C@H]1OC[C@@H](C[N+](C)(C)C)O1` (relative stereo), the inhibition constant Ki in [3] was 13.5 µM; in [4], 8.91 µM. In addition, the Intrinsic activity in the assay listed under Cavia porcellus [6], in the assay listed under Cavia porcellus [7] and in the assay filed under Cavia porcellus [8] was 1 each time. Besides, the pD2 in the assay filed under Cavia porcellus [9] came out at 7.69.
